Laboratory results taken from US20260001928A1 (CORTERIA PHARMACEUTICALS, priority 2022, published 2026).
*1 amine or outer side, *2 acyl side, *3 side chain or, on linkers, in order; H or OH if unused. Where a SMILES comes first, the peptide text is derived from it. Side-chain parts run from the residue outwards. [ ]: non-standard residue; d: D form. The star is where a group is joined. C18 diacid = O=C(O)CCCCCCCCCCCCCCCCC(=O)*; C16 diacid = O=C(O)CCCCCCCCCCCCCCC(=O)*; γGlu = O=C(O)[C@H](CCC(=O)[*:2])N[*:1]; NMeI = CC[C@H](C)[C@H](NC)C(=O)O; Pentanoyl = CCCCC(=O)*; AEEA = NCCOCCOCC(=O)O; Aib = CC(C)(N)C(=O)O

Molecular target: T1, CFR1R receptor (Homo sapiens, UniProt P34998)
T1 construct: host or cells: CHO-K1 (clone 2)
T1 sequence (P34998 24-415): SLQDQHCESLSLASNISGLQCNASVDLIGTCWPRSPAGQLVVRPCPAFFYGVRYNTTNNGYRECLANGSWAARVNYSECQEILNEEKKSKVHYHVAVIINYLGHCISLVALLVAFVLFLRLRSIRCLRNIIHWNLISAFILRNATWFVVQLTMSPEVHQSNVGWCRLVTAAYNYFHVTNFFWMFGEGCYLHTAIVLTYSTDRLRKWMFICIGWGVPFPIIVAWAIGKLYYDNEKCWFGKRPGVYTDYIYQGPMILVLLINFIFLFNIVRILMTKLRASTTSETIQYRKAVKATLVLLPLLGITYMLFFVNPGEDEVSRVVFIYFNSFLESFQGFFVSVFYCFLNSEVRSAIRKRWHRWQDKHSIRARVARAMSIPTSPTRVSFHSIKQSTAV
Assay: Activity at anti-target CFR1R receptor, cAMP assay in CRF1R-overexpression CHO-K1 cells
Format: cell-based
Settings: 100% = Sauvagine at 100 nM
In short: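 Run as for the TeloHAEC line, except the full-activation control well received Sauvagine (100 nM) and final density was 4000 cells/well. Cells from clone 2 came from frozen aliquots of near-confluent cultures.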

CCCCC(=O)N[C@H](C(=O)N[C@@H](CC(C)C)C(=O)N[C@@H](CO)C(=O)N[C@@H](CC(C)C)C(=O)N[C@@H](CC(=O)O)C(=O)N[C@@H](C(=O)N1CCC[C@H]1C(=O)N[C@H](C(=O)N[C@@H](CCCCN)C(=O)N[C@@H](CC(C)C)C(=O)N[C@@H](CCCCNC(=O)COCCOCCNC(=O)COCCOCCNC(=O)CC[C@H](NC(=O)CC[C@H](NC(=O)CCCCCCCCCCCCCCCCC(=O)O)C(=O)O)C(=O)O)C(=O)N[C@@H](CCC(N)=O)C(=O)N[C@H](C(=O)N[C@@H](CC(C)C)C(=O)N[C@@H](CC(C)C)C(=O)N[C@@H](CCCCN)C(=O)N[C@@H](CCC(N)=O)C(=O)N[C@@H](CCC(=O)O)C(=O)N[C@@H](CCCNC(=N)N)C(=O)N[C@@H](CCC(N)=O)C(=O)N[C@@H](CCCCN)C(=O)N[C@@H](CCCCN)C(=O)N[C@@H](CCC(N)=O)C(=O)N[C@@H](CCCNC(=N)N)C(=O)N[C@@H](CCC(=O)O)C(=O)N[C@@H](CCC(N)=O)C(=O)N[C@@H](C)C(=O)N[C@@H](CCC(=O)O)C(=O)N[C@@H](CCCCN)C(=O)N[C@@H](CC(N)=O)C(=O)NC(C)(C)C(=O)N[C@@H](CCC(N)=O)C(=O)N[C@H](C(=O)N[C@@H](CC(C)C)C(=O)N[C@@H](CCC(=O)O)C(=O)N[C@@H](CCC(N)=O)C(=O)N[C@H](C(N)=O)C(C)C)[C@@H](C)CC)[C@@H](C)CC)[C@@H](C)CC)C(C)C)C(C)C [compound 32] (Pentanoyl-VLSLD[dV]PIKLK([AEEA-AEEA-γGlu-γGlu-C18 diacid])QILLKQERQKKQREQAEKN[Aib]QILEQV-NH2)
Emax (% I): 5 % I

CC[C@H](C)[C@H](NC(C)=O)C(=O)N[C@H](C(=O)N[C@@H](CC(C)C)C(=O)N[C@@H](CO)C(=O)N[C@@H](CC(C)C)C(=O)N[C@@H](CC(=O)O)C(=O)N[C@@H](C(=O)N1CCC[C@H]1C(=O)N[C@H](C(=O)N[C@@H](CCCCN)C(=O)N[C@@H](CC(C)C)C(=O)N[C@@H](CCCCNC(=O)COCCOCCNC(=O)COCCOCCNC(=O)CC[C@H](NC(=O)CC[C@H](NC(=O)CCCCCCCCCCCCCCCCC(=O)O)C(=O)O)C(=O)O)C(=O)N[C@@H](CCC(N)=O)C(=O)N[C@H](C(=O)N[C@@H](CC(C)C)C(=O)N[C@@H](CC(C)C)C(=O)N[C@@H](CCCCN)C(=O)N[C@@H](CCC(N)=O)C(=O)N[C@@H](CCC(=O)O)C(=O)N[C@@H](CCCNC(=N)N)C(=O)N[C@@H](CCC(N)=O)C(=O)N[C@@H](CCCCN)C(=O)N[C@@H](CCCCN)C(=O)N[C@@H](CCC(N)=O)C(=O)N[C@@H](CCCNC(=N)N)C(=O)N[C@@H](CCC(=O)O)C(=O)N[C@@H](CCC(N)=O)C(=O)N[C@@H](C)C(=O)N[C@@H](CCC(=O)O)C(=O)N[C@@H](CCCCN)C(=O)N[C@@H](CC(N)=O)C(=O)NC(C)(C)C(=O)N[C@@H](CCC(N)=O)C(=O)N[C@H](C(=O)N[C@@H](CC(C)C)C(=O)N[C@@H](CCC(=O)O)C(=O)N[C@@H](CCC(N)=O)C(=O)N[C@H](C(N)=O)C(C)C)[C@@H](C)CC)[C@@H](C)CC)[C@@H](C)CC)C(C)C)C(C)C [compound 30] (Ac-IVLSLD[dV]PIKLK([AEEA-AEEA-γGlu-γGlu-C18 diacid])QILLKQERQKKQREQAEKN[Aib]QILEQV-NH2)
Emax (% I): 15 % I

CC[C@H](C)[C@H](NC)C(=O)N[C@H](C(=O)N[C@@H](CC(C)C)C(=O)N[C@@H](CO)C(=O)N[C@@H](CC(C)C)C(=O)N[C@@H](CC(=O)O)C(=O)N[C@@H](C(=O)N1CCC[C@H]1C(=O)N[C@H](C(=O)N[C@@H](CCCCN)C(=O)N[C@@H](CC(C)C)C(=O)N[C@@H](CCCCNC(=O)COCCOCCNC(=O)COCCOCCNC(=O)CC[C@H](NC(=O)CC[C@H](NC(=O)CCCCCCCCCCCCCCCCC(=O)O)C(=O)O)C(=O)O)C(=O)N[C@@H](CCC(N)=O)C(=O)N[C@H](C(=O)N[C@@H](CC(C)C)C(=O)N[C@@H](CC(C)C)C(=O)N[C@@H](CCCCN)C(=O)N[C@@H](CCC(N)=O)C(=O)N[C@@H](CCC(=O)O)C(=O)N[C@@H](CCCNC(=N)N)C(=O)N[C@@H](CCC(N)=O)C(=O)N[C@@H](CCCCN)C(=O)N[C@@H](CCCCN)C(=O)N[C@@H](CCC(N)=O)C(=O)N[C@@H](CCCNC(=N)N)C(=O)N[C@@H](CCC(=O)O)C(=O)N[C@@H](CCC(N)=O)C(=O)N[C@@H](C)C(=O)N[C@@H](CCC(=O)O)C(=O)N[C@@H](CCCCN)C(=O)N[C@@H](CC(N)=O)C(=O)NC(C)(C)C(=O)N[C@@H](CCC(N)=O)C(=O)N[C@H](C(=O)N[C@@H](CC(C)C)C(=O)N[C@@H](CCC(=O)O)C(=O)N[C@@H](CCC(N)=O)C(=O)N[C@H](C(N)=O)C(C)C)[C@@H](C)CC)[C@@H](C)CC)[C@@H](C)CC)C(C)C)C(C)C [compound 31] (H-[NMeI]VLSLD[dV]PIKLK([AEEA-AEEA-γGlu-γGlu-C18 diacid])QILLKQERQKKQREQAEKN[Aib]QILEQV-NH2)
Emax (% I): 14 % I

CC[C@H](C)[C@H](N)C(=O)N[C@H](C(=O)N[C@@H](CC(C)C)C(=O)N[C@@H](CO)C(=O)N[C@@H](CC(C)C)C(=O)N[C@@H](CC(=O)O)C(=O)N[C@@H](C(=O)N1CCC[C@H]1C(=O)N[C@H](C(=O)N[C@@H](CCCCN)C(=O)N[C@@H](CC(C)C)C(=O)N[C@@H](CCCCNC(=O)COCCOCCNC(=O)COCCOCCNC(=O)CC[C@H](NC(=O)CCCCCCCCCCCCCCC(=O)O)C(=O)O)C(=O)N[C@@H](CCC(N)=O)C(=O)N[C@H](C(=O)N[C@@H](CC(C)C)C(=O)N[C@@H](CC(C)C)C(=O)N[C@@H](CCCCN)C(=O)N[C@@H](CCC(N)=O)C(=O)N[C@@H](CCC(=O)O)C(=O)N[C@@H](CCCNC(=N)N)C(=O)N[C@@H](CCC(N)=O)C(=O)N[C@@H](CCCCN)C(=O)N[C@@H](CCCCN)C(=O)N[C@@H](CCC(N)=O)C(=O)N[C@@H](CCCNC(=N)N)C(=O)N[C@@H](CCC(=O)O)C(=O)N[C@@H](CCC(N)=O)C(=O)N[C@@H](C)C(=O)N[C@@H](CCC(=O)O)C(=O)N[C@@H](CCCCN)C(=O)N[C@@H](CC(N)=O)C(=O)N[C@@H](CCCCN)C(=O)N[C@@H](CCC(N)=O)C(=O)N[C@H](C(=O)N[C@@H](CC(C)C)C(=O)N[C@@H](CCC(=O)O)C(=O)N[C@@H](CCC(N)=O)C(=O)N[C@H](C(N)=O)C(C)C)[C@@H](C)CC)[C@@H](C)CC)[C@@H](C)CC)C(C)C)C(C)C [SEQ ID No. 148, reference compound] (H-IVLSLD[dV]PIKLK([AEEA-AEEA-γGlu-C16 diacid])QILLKQERQKKQREQAEKNKQILEQV-NH2)
Emax (% I) (listed as 2): 63 % I

CC[C@H](C)[C@H](NC(C)=O)C(=O)N[C@H](C(=O)N[C@@H](CC(C)C)C(=O)N[C@@H](CO)C(=O)N[C@@H](CC(C)C)C(=O)N[C@@H](CC(=O)O)C(=O)N[C@@H](C(=O)N1CCC[C@H]1C(=O)N[C@H](C(=O)N[C@@H](CCCCN)C(=O)N[C@@H](CC(C)C)C(=O)N[C@@H](CCCCNC(=O)COCCOCCNC(=O)COCCOCCNC(=O)CC[C@H](NC(=O)CC[C@H](NC(=O)CCCCCCCCCCCCCCCCC(=O)O)C(=O)O)C(=O)O)C(=O)N[C@@H](CCC(N)=O)C(=O)NC(C)(C)C(=O)N[C@@H](CC(C)C)C(=O)N[C@@H](CC(C)C)C(=O)N[C@@H](CCCCN)C(=O)N[C@@H](CCC(N)=O)C(=O)N[C@@H](CCC(=O)O)C(=O)N[C@@H](CCCNC(=N)N)C(=O)N[C@@H](CCC(N)=O)C(=O)N[C@@H](CCCCN)C(=O)N[C@@H](CCCCN)C(=O)N[C@@H](CCC(N)=O)C(=O)N[C@@H](CCCNC(=N)N)C(=O)N[C@@H](CCC(=O)O)C(=O)N[C@@H](CCC(N)=O)C(=O)N[C@@H](C)C(=O)N[C@@H](CCC(=O)O)C(=O)N[C@@H](CCCCN)C(=O)N[C@@H](CC(N)=O)C(=O)N[C@H](C(=O)N[C@@H](CCC(N)=O)C(=O)N[C@H](C(=O)N[C@@H](CC(C)C)C(=O)N[C@@H](CCC(=O)O)C(=O)N[C@@H](CCC(N)=O)C(=O)N[C@H](C(N)=O)C(C)C)[C@@H](C)CC)C(C)C)[C@@H](C)CC)C(C)C)C(C)C [compound 27] (Ac-IVLSLD[dV]PIKLK([AEEA-AEEA-γGlu-γGlu-C18 diacid])Q[Aib]LLKQERQKKQREQAEKNVQILEQV-NH2)
Emax (% I): 7 % I

CC[C@H](C)[C@H](NC(C)=O)C(=O)N[C@H](C(=O)N[C@@H](CC(C)C)C(=O)N[C@@H](CO)C(=O)N[C@@H](CC(C)C)C(=O)N[C@@H](CC(=O)O)C(=O)N[C@@H](C(=O)N1CCC[C@H]1C(=O)N[C@H](C(=O)N[C@@H](CCCCN)C(=O)N[C@@H](CC(C)C)C(=O)N[C@@H](CCCCNC(=O)CC[C@H](NC(=O)CCCCCCCCCCCCCCCCC(=O)O)C(=O)O)C(=O)N[C@@H](CCCCN)C(=O)N[C@H](C(=O)N[C@@H](CC(C)C)C(=O)N[C@@H](CC(C)C)C(=O)N[C@@H](CCC(=O)O)C(=O)N[C@@H](CCC(N)=O)C(=O)N[C@@H](CCC(=O)O)C(=O)N[C@@H](CCCCN)C(=O)N[C@@H](CCC(N)=O)C(=O)N[C@@H](CCCCN)C(=O)N[C@@H](CCCCN)C(=O)N[C@@H](CCC(N)=O)C(=O)N[C@@H](CCCNC(=N)N)C(=O)N[C@@H](CCC(=O)O)C(=O)N[C@@H](CCC(N)=O)C(=O)N[C@@H](C)C(=O)N[C@@H](CCC(=O)O)C(=O)N[C@H](C(=O)N[C@@H](CC(N)=O)C(=O)N[C@@H](CCC(=O)O)C(=O)N[C@@H](CCC(N)=O)C(=O)N[C@H](C(=O)N[C@@H](CC(C)C)C(=O)N[C@@H](C)C(=O)N[C@@H](CCC(N)=O)C(=O)N[C@H](C(N)=O)C(C)C)[C@@H](C)CC)[C@@H](C)O)[C@@H](C)CC)[C@@H](C)CC)C(C)C)C(C)C [SEQ ID No. 130, reference compound] (Ac-IVLSLD[dV]PIKLK([γGlu-C18 diacid])KILLEQEKQKKQREQAETNEQILAQV-NH2)
Emax (% I) (listed as 13): 24 % I
